Measurements taken from US8609708B2 (Human BioMolecular Research Institute, priority 2003, dated 2013).
Where two headings read alike, the source gives them in different places.

Legend:
Microsomal Human CYP2A6 = Microsomal Human CYP2A6 (Homo sapiens (Human), UniProt P11509); test: Microsomal human CYP2A6-mediated nicotine oxidase activity
Method: For each determination, cold microsomes (of predetermined CYP2A6 activity) was added to the NADPH-generating system containing 50 mM Tris (pH=7.4) and DETAPAC (to prevent metal-catalyzed autooxidation) and inhibitor. Because rat liver cytosol has little CYP2A6 activity and high levels of aldehyde oxidase, 0.2 mg/incubation was used to quantitatively convert the nicotine iminium ion to cotinine. […] For initial evaluation of a large number of samples, [^3]H-nicotine was used in a TLC/radiometric format. […] Quantification of scrapped bands was by scintillation counting.

CYP2E1 = CYP2E1 (Homo sapiens (Human), UniProt P05181); test: CYP2E1 Vivid blue substrate O-dealkylation inhibition; format: biochemical
Sequence of CYP2E1 (P05181 whole entry): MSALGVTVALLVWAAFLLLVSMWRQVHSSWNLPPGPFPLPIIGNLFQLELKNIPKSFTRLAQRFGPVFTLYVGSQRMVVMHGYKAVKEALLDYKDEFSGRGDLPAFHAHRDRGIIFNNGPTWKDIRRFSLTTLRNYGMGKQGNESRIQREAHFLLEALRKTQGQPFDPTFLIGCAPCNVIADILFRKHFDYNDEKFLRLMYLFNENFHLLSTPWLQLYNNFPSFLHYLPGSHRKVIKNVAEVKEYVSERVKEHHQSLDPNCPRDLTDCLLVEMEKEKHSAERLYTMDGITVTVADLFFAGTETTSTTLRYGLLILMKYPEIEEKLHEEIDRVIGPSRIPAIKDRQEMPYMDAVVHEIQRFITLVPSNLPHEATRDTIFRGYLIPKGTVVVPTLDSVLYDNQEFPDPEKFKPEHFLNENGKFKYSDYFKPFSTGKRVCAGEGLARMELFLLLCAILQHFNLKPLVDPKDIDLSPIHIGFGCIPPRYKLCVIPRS

CYP2D6 = CYP2D6 (Homo sapiens (Human), UniProt P10635); test: CYP2D6 Vivid blue substrate O-dealkylation inhibition; format: biochemical
Sequence of CYP2D6 (P10635 whole entry): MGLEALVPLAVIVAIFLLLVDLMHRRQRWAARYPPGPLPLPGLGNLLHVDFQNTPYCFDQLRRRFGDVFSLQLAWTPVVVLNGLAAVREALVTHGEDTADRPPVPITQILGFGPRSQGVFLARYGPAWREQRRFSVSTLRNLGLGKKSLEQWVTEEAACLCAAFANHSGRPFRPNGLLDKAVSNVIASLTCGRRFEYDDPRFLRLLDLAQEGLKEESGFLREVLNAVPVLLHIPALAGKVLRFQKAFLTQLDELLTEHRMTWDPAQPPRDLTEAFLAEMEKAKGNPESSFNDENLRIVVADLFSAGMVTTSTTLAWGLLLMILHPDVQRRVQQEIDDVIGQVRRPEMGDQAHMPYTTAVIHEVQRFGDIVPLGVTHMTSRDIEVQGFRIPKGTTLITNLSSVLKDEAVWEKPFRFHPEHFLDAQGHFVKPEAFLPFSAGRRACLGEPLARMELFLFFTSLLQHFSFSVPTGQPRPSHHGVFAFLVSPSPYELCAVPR

CYP2C9 = CYP2C9 (Homo sapiens (Human), UniProt P11712); test: CYP2C9 Vivid blue substrate O-dealkylation inhibition; format: biochemical
Sequence of CYP2C9 (P11712 whole entry): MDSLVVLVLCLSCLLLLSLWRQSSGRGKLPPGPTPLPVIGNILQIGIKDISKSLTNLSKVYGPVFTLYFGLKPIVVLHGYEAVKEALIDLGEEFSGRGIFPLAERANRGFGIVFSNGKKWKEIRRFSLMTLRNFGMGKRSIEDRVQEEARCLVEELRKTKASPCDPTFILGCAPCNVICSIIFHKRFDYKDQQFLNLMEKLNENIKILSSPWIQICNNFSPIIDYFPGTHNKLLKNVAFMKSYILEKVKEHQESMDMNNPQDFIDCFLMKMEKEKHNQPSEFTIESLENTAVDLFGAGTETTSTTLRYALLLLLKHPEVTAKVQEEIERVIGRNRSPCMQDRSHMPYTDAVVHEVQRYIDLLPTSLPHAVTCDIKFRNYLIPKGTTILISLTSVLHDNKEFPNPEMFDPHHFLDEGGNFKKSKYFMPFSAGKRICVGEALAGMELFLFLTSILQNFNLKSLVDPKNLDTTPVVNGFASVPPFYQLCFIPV

human CYP2A6 [1] = target: T1, human CYP2A6 (Homo sapiens (Human), UniProt P11509)
T1 sequence (P11509 whole entry): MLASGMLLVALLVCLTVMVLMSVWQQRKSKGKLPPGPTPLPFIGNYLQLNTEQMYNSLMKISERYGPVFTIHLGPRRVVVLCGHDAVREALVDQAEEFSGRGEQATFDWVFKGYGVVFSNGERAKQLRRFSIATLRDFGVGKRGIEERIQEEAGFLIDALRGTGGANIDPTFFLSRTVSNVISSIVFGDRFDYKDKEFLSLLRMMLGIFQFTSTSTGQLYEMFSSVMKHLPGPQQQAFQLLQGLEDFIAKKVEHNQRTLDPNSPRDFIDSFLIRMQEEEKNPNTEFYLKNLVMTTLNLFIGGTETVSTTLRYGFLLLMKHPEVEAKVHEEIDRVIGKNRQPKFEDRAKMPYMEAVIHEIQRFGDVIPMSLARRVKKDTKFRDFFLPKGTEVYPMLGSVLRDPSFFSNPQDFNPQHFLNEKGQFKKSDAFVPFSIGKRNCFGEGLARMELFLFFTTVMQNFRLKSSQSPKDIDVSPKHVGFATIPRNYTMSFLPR

CYP3A4 = CYP3A4 (Homo sapiens (Human), UniProt P08684); test: in vitro
Sequence of CYP3A4 (P08684 whole entry): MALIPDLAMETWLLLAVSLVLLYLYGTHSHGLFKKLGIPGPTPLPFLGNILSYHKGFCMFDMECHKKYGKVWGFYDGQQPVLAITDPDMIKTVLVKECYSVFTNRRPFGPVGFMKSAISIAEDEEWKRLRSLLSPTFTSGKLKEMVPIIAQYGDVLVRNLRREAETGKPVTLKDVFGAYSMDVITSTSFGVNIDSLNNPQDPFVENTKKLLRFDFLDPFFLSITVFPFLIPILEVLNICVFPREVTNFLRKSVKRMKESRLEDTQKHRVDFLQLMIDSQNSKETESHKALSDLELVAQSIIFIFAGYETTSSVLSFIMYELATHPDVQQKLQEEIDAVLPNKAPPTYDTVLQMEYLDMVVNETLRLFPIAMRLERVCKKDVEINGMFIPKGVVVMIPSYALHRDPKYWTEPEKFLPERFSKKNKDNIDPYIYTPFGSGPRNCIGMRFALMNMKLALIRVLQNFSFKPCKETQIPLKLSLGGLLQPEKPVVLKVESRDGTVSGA

CYP2B6 = CYP2B6 (Homo sapiens (Human), UniProt P20813); test: CYP2B6 Vivid blue substrate O-dealkylation inhibition; format: biochemical
Sequence of CYP2B6 (P20813 whole entry): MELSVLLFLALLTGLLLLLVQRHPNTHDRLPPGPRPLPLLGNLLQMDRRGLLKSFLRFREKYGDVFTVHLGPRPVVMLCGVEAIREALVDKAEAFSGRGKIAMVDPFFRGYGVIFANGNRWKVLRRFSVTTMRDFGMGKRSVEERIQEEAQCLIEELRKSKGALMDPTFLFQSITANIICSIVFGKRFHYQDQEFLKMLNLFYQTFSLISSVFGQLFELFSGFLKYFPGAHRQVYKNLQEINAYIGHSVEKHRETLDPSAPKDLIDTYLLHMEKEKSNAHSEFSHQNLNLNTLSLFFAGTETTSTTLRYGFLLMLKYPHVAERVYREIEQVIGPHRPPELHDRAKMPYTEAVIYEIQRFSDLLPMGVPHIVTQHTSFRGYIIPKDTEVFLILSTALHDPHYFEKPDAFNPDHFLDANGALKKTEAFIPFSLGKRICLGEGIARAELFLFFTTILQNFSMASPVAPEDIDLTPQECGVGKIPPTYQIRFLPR

[2] = target: Ach binding protein (AchBP) (Lymnaea stagnalis (Great pond snail) (Helix stagnalis), UniProt P58154)
Sequence of Ach binding protein (AchBP) (P58154 20-229 limits assumed): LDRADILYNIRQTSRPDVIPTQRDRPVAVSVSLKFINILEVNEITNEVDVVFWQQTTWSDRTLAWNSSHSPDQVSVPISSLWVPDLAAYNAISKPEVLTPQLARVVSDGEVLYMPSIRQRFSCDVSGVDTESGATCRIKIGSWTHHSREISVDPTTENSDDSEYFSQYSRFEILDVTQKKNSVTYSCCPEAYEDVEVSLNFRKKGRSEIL
Text: To examine the degree of interaction with the nicotinic acetylcholine receptor, we examined the binding interaction of the synthetic inhibitors with the Ach binding protein (AchBP) from the fresh water snail (Table 3).

CYP2C19 = CYP2C19 (Homo sapiens (Human), UniProt P33261); test: CYP2C19 Vivid blue substrate O-dealkylation inhibition; format: biochemical
Sequence of CYP2C19 (P33261 whole entry): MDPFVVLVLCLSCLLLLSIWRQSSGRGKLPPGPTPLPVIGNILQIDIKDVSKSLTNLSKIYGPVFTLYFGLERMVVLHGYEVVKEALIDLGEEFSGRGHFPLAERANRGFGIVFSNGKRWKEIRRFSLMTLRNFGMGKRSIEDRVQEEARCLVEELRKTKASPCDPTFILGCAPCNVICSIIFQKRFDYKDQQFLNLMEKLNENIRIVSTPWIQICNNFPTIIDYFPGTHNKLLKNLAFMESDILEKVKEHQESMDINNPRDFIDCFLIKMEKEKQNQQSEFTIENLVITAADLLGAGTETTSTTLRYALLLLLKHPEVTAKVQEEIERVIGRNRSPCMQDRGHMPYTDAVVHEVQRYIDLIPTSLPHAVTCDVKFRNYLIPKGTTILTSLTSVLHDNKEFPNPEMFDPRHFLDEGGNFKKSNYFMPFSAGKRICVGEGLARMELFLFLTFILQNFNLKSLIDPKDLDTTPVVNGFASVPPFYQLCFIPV

[3] = target: Acetylcholine Binding Protein (Lymnaea stagnalis (Great pond snail) (Helix stagnalis), UniProt P58154); design: species or system Lymnaca stagnalis
Sequence of Acetylcholine Binding Protein (P58154 20-229 limits assumed): as the sequence (P58154 20-229 limits assumed) above

[4] = Mouse liver microsome stability assay; settings: for half-life at 40 μM: mouse, pH 7.4; for MLM t1/2: 40 μM test compound
Method: The residue was reconstituted in methanol (200 μL), centrifuged at 13,000 rpm for 5 min and the supernatant was analyzed by high-performance liquid chromatography with an Axxi-chrom (straight-phase) silica column (4.6 mm×250 mm, 5 μm) or with a Supelco (reverse-phase) HS F5 pentafluorophenyl column (4.6 mm×250 mm, 5 μm).

in vitro = settings: human, microsomes, pH 7.4
P450 2A6dH = P450 2A6dH (Homo sapiens (Human), UniProt P11509, INS494HHHH); test: Difference spectra of test compounds with N-terminal truncated CYP2A6; settings: for λmax / λmin: difference spectrum; for binding type: difference spectrum with truncated CYP2A6
Sequence of P450 2A6dH (P11509 other isoform, or with tags, fused parts or gaps 1-28 replaced by MAKKTS/ins HHHH behind 494): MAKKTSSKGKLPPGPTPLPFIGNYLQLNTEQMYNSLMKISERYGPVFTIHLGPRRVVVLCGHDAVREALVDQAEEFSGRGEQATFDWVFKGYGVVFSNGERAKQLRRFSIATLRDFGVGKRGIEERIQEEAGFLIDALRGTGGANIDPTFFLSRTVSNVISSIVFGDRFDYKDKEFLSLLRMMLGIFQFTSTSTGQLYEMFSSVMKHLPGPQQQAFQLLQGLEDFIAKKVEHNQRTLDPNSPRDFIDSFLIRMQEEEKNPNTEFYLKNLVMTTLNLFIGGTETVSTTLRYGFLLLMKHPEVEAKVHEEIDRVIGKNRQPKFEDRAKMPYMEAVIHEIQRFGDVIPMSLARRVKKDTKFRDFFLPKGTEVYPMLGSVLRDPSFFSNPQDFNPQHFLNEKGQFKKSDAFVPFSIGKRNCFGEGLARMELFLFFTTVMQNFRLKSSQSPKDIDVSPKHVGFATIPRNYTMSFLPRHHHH
Method: Subsequently, test compound (in 100% ethanol, 10 μM) was added to both the cuvettes. The maximal ethanol concentration used was 2%. The difference spectra were obtained after the system reached equilibrium (3 min). All spectra were recorded at 25° C.

human CYP2A6 [5] = target: T1, human CYP2A6; test: CYP2A6 mediated coumarin 7-hydroxylation inhibition
[6] = Human liver microsome stability assay; settings: human liver microsomes; for half-life at 40 μM: human, pH 7.4
[7] = target: CYP2E1 relative to CYP2A6 (Homo sapiens (Human), UniProt P05181); test: CYP2E1 Vivid blue substrate O-dealkylation inhibition; format: biochemical; settings: human, recombinant CYP2E1 BACULOSOMES, pH 8, probe Vivid blue substrate (10 μM), O-dealkylation; read-out: 2E1/2A6 selectivity ratio (IC50 CYPX/IC50 CYP2A6)
Sequence of CYP2E1 relative to CYP2A6 (P05181 whole entry): as the sequence (P05181 whole entry) above

[8] = target: CYP2D6 relative to CYP2A6 (Homo sapiens (Human), UniProt P10635); test: CYP2D6 Vivid blue substrate O-dealkylation inhibition; format: biochemical; settings: human, recombinant CYP2D6 BACULOSOMES, pH 8, probe Vivid blue substrate (10 μM), O-dealkylation; read-out: 2D6/2A6 selectivity ratio (IC50 CYPX/IC50 CYP2A6)
Sequence of CYP2D6 relative to CYP2A6 (P10635 whole entry): as the sequence (P10635 whole entry) above

[9] = target: CYP2C9 relative to CYP2A6 (Homo sapiens (Human), UniProt P11712); test: CYP2C9 Vivid blue substrate O-dealkylation inhibition; format: biochemical; settings: human, recombinant CYP2C9 BACULOSOMES, pH 8, probe Vivid blue substrate (10 μM), O-dealkylation; read-out: 2C9/2A6 selectivity ratio (IC50 CYPX/IC50 CYP2A6)
Sequence of CYP2C9 relative to CYP2A6 (P11712 whole entry): as the sequence (P11712 whole entry) above

[10] = target: CYP3A4 relative to CYP2A6 (Homo sapiens (Human), UniProt P08684); test: in vitro; settings: human, pH 7.5
Sequence of CYP3A4 relative to CYP2A6 (P08684 whole entry): as the sequence (P08684 whole entry) above

[11] = target: CYP2B6 relative to CYP2A6 (Homo sapiens (Human), UniProt P20813); test: CYP2B6 Vivid blue substrate O-dealkylation inhibition; format: biochemical; settings: human, recombinant CYP2B6 BACULOSOMES, pH 8, probe Vivid blue substrate (5 μM), O-dealkylation; read-out: 2B6/2A6 selectivity ratio (IC50 CYPX/IC50 CYP2A6)
Sequence of CYP2B6 relative to CYP2A6 (P20813 whole entry): as the sequence (P20813 whole entry) above

[12] = target: CYP2C19 relative to CYP2A6 (Homo sapiens (Human), UniProt P33261); test: CYP2C19 Vivid blue substrate O-dealkylation inhibition; format: biochemical; settings: human, recombinant CYP2C19 BACULOSOMES, pH 8, probe Vivid blue substrate (10 μM), O-dealkylation; read-out: 2C19/2A6 selectivity ratio (IC50 CYPX/IC50 CYP2A6)
male Wistar rats = test: Nicotine self-administration in nicotine-addicted rats; format: in vivo, rat
human CYP2A6 [13] = target: T1, human CYP2A6; test: biochemical
[14] = Table 4, unit inferred, read-out: 2E1 IC50 ± SD
[15] = Table 4, unit inferred, read-out: 2D6 IC50 ± SD
[16] = read-out: 2A6 IC50 ± SD, Table 4, unit not given (same data in Table 1 in μM)
[17] = Table 4, unit inferred, read-out: 2C9 IC50 ± SD
[18] = Table 4, unit inferred, read-out: 2B6 IC50 ± SD
[19] = Table 4, unit inferred, read-out: 2C19 IC50 ± SD

Sequence of Microsomal Human CYP2A6 (P11509 whole entry): as the sequence (P11509 whole entry) above

NCC1CCC(c2cccnc2)O1 (racemic) [Compound 38]
IC50 (Microsomal Human CYP2A6): 5.21 ± 1.68 µM | Selectivity ratio (IC50 CYPX/IC50 CYP2A6) 2E1/2A6 (CYP2E1; human CYP2E1 versus human CYP2A6): 21 | IC50 (CYP2E1; read-out: IC50 ± SD 2E1, insect cell microsomes expressing CYP2E1, 0.2M potassium phosphate buffer, mean of at least 3 determinations ± SD): 77.5 ± 14.6 µM | Selectivity ratio (IC50 CYPX/IC50 CYP2A6) 2D6/2A6 (CYP2D6; human CYP2D6 versus human CYP2A6): 53 | IC50 (CYP2D6; read-out: IC50 ± SD 2D6, insect cell microsomes expressing CYP2D6, 0.2M potassium phosphate buffer, mean of at least 3 determinations ± SD): 197 ± 21 µM | Selectivity ratio (IC50 CYPX/IC50 CYP2A6) 2C9/2A6 (CYP2C9; human CYP2C9 versus human CYP2A6): 56 | IC50 (CYP2C9; read-out: IC50 ± SD 2C9, insect cell microsomes expressing CYP2C9, 0.2M potassium phosphate buffer, mean of at least 3 determinations ± SD): 208 ± 21 µM | CYP2A6 inhibition (in words) (human CYP2A6 [1]): significantly diminished | IC50 (CYP3A4; human, microsomes, pH 7.5): 77.5 ± 14.6 µM | Selectivity ratio (IC50 CYPX/IC50 CYP2A6) 3A4/2A6 (CYP3A4; human, pH 7.5): 21 | Selectivity ratio (IC50 CYPX/IC50 CYP2A6) 2B6/2A6 (CYP2B6; human CYP2B6 versus human CYP2A6): 69 | IC50 (CYP2B6; read-out: IC50 ± SD 2B6, insect cell microsomes expressing CYP2B6, 0.2M potassium phosphate buffer, mean of at least 3 determinations ± SD): 256 ± 29 µM | binding to the AchBP (in words) ([2]; fluorescence quenching): modest binding avidity | AchBP ([2]; intrinsic fluorescence quenching, 20 nM AchBP): + | Selectivity ratio (IC50 CYPX/IC50 CYP2A6) 2C19/2A6 (CYP2C19; human CYP2C19 versus human CYP2A6): 62 | IC50 (CYP2C19; read-out: IC50 ± SD 2C19, insect cell microsomes expressing CYP2C19, 0.2M potassium phosphate buffer, mean of at least 3 determinations ± SD): 233 ± 21 µM

NC1CC1c1cccnc1 (stereo not drawn) [2-(pyridin-3-yl)cyclopropanamine]
% of Control [3]: 8%

NCc1ccc(-c2cccnc2)o1 [(5-(pyridin-3-yl)furan-2-yl)methanamine]
% of Control [3]: 20%

NCc1ccc(-c2cccnc2)s1 [Compound 1a]
IC50 (CYP2E1; [14]): 40.2 ± 18.1 µM | IC50 (CYP2D6; [15]): 169 ± 17 µM | half-life at 40 μM ([4]; microsomes): 1 h | half-life (in vitro): 0.65 h | λmax (P450 2A6dH): 428 nm | λmin (P450 2A6dH): 409 nm | binding type (P450 2A6dH): Type II

CNCc1ccc(-c2cccnc2)s1 [Compound 1b]
IC50 (human CYP2A6 [5]; [16]): 1.1 ± 0.13 µM | half-life at 40 μM [6]: 1.6 h | IC50 (CYP2E1; [14]): > 400 µM | IC50 (CYP2D6; [15]): 113 ± 19 µM | MLM t1/2 ([4]; mouse liver microsomes): Stable^a | IC50 (CYP2C9; [17]): 67.7 ± 3.7 µM | λmax (P450 2A6dH): 430 nm | λmin (P450 2A6dH): 410 nm | binding type (P450 2A6dH): Type II | IC50 (CYP3A4): > 400 µM | IC50 (CYP2B6; [18]): > 400 µM | IC50 (CYP2C19; [19]): 59.8 ± 6.5 µM

CN(C)Cc1ccc(-c2cccnc2)s1 [Compound 1c]
IC50 (human CYP2A6 [5]; [16]): 133 ± 21 µM | HLM t1/2 ([6]; 40 μM test compound): Stable^a | IC50 (CYP2E1; [14]): > 400 µM | selectivity ratio at 40 min [7]: > 3 | selectivity ratio at 40 min [8]: 0.2 | IC50 (CYP2D6; [15]): 28.7 ± 4.1 µM | half-life at 40 μM ([4]; mouse liver microsomes): 5.72 h | IC50 (CYP2C9; [17]): 206 ± 23 µM | selectivity ratio at 40 min [9]: 1.5 | λmax (P450 2A6dH): 428 nm | λmin (P450 2A6dH): 411 nm | binding type (P450 2A6dH): Type II | IC50 (CYP3A4): 219 ± 23 µM | selectivity ratio at 30 min [10]: 1.6 | selectivity ratio at 40 min [11]: > 3 | IC50 (CYP2B6; [18]): > 400 µM | selectivity ratio at 40 min [12]: 0.8 | IC50 (CYP2C19; [19]): 106 ± 18 µM

NCc1ccc(-c2cccnc2)o1 [Compound 2]
CYP2A6 inhibition (in words) (human CYP2A6 [1]): significant inhibition | IC50 (human CYP2A6 [1]; human, pH 7.5): 0.268 ± 0.021 µM | in vivo activity against nicotine self-administration (in words) (male Wistar rats; nicotine addicted rats): significant in vivo activity | decrease of nicotine self-administration (male Wistar rats; rat, day 50, dihydrochloride salts in sterile saline, compound 2 16 mg/kg, compound 14 15 mg/kg): 70% | selectivity ratio at 30 min [10]: 174

CNCc1ccc(-c2cccnc2)o1 [Compound 2b]
IC50 (human CYP2A6 [5]; [16]): 1.6 ± 0.34 µM | half-life at 40 μM [6]: 1.1 h | IC50 (CYP2E1; [14]): > 400 µM | selectivity ratio at 40 min [7]: > 250 | selectivity ratio at 40 min [8]: 57 | IC50 (CYP2D6; [15]): 90.6 ± 7.8 µM | MLM t1/2 ([4]; mouse liver microsomes): Stable^a | IC50 (CYP2C9; [17]): 76.1 ± 9.1 µM | selectivity ratio at 40 min [9]: 48 | λmax (P450 2A6dH): 431 nm | λmin (P450 2A6dH): 411 nm | binding type (P450 2A6dH): Type II | IC50 (CYP3A4): > 400 µM | selectivity ratio at 30 min [10]: > 250 | selectivity ratio at 40 min [11]: 224 | IC50 (CYP2B6; [18]): 358 ± 22 µM | selectivity ratio at 40 min [12]: 19 | IC50 (CYP2C19; [19]): 30.6 ± 4.1 µM

BrCC1CCC(c2cccnc2)O1 (stereo not drawn) [Compound 32]
IC50 (Microsomal Human CYP2A6): 0.36 ± 0.18 µM

O/N=C/c1ccc(-c2cccnc2)o1 [Compound 39]
IC50 (human CYP2A6 [13]): 9.75 ± 0.91 µM | IC50 (CYP3A4; human, pH 7.5): > 400 µM

CCC1CCC(c2cccnc2)O1 (stereo not drawn) [Compound 44]
IC50 (Microsomal Human CYP2A6): 0.02 ± 0.02 µM | inhibition of microsomal nicotine oxidase (in words) (Microsomal Human CYP2A6): quite potent | IC50 (human CYP2A6 [5]; read-out: CYP2A6 IC50, coumarin 7-hydroxylation): 13.6 ± 3.48 µM
